The results in this text go back to PubChem BioAssay AID330 (DTP/NCI, 2004).

Values joined by “and” are separate entries in the source; they are usually repeats but may differ in a detail not shown here. Equal values may be shown once. Inconclusive results and toxic doses are left out.

The experiment relates to P388 leukemia ip, CD2F1 mice, survival T/C. In words: NCI In Vivo Anticancer Drug Screen. Data for tumor model P388 Leukemia (intraperitoneal) in CD2F1 (CDF1) mice. The settings on record: endpoint: median survival time, higher = longer survival. An outline of the steps: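 Mice carrying the transplanted tumor received test compound or vehicle. Survival was recorded in each group, and the value is the treated-group measurement divided by that of the vehicle-treated control group.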

The mark [1] stands for this setting: dose: 50.0 mg/kg/injection, schedule: Q01DX009 (ip), vehicle: saline with Tween-80.
Setting [2] is: dose: 100.0 mg/kg/injection, schedule: Q01DX009 (ip), vehicle: saline with Tween-80.
The mark [3] stands for this setting: dose: 200.0 mg/kg/injection, schedule: Q01DX009 (ip), vehicle: saline with Tween-80.
The mark [4] stands for this setting: dose: 25.0 mg/kg/injection, schedule: Q01DX005 (ip), vehicle: saline.
[5] abbreviates: dose: 50.0 mg/kg/injection, schedule: Q01DX005 (ip), vehicle: saline with Tween-80.
Setting [6] is: dose: 50.0 mg/kg/injection, schedule: Q01DX005 (ip), vehicle: saline.
[7] abbreviates: dose: 100.0 mg/kg/injection, schedule: Q01DX005 (ip), vehicle: saline.
Setting [8] is: dose: 200.0 mg/kg/injection, schedule: Q01DX005 (ip), vehicle: saline.
Setting [9] is: dose: 60.0 mg/kg/injection, schedule: Q01DX005 (ip), vehicle: saline with Tween-80.
[10] abbreviates: dose: 120.0 mg/kg/injection, schedule: Q01DX005 (ip), vehicle: saline with Tween-80.
Where [11] appears, read: dose: 7.5 mg/kg/injection, schedule: Q01DX009 (ip), vehicle: saline with Tween-80.
[12] abbreviates: dose: 15.0 mg/kg/injection, schedule: Q01DX009 (ip), vehicle: saline with Tween-80.
The mark [13] stands for this setting: dose: 30.0 mg/kg/injection, schedule: Q01DX009 (ip), vehicle: saline with Tween-80.
Where [14] appears, read: dose: 240.0 mg/kg/injection, schedule: Q01DX005 (ip), vehicle: saline with Tween-80.
The mark [15] stands for this setting: dose: 25.0 mg/kg/injection, schedule: Q01DX009 (ip), vehicle: water.
[16] abbreviates: dose: 50.0 mg/kg/injection, schedule: Q01DX009 (ip), vehicle: water.

Consider `NCCCN=c1ccc2c3c1c(O)c1c(O)ccc(=O)c1c3[nH]n2CCNCCO`, for which the T/C reads like this: (dose: 3.12 mg/kg/injection, schedule: Q04DX002 (ip), vehicle: saline) 165 % of control; (dose: 3.12 mg/kg/injection, schedule: Q04DX002 (ip), vehicle: water) 165 % of control; (dose: 6.25 mg/kg/injection, schedule: Q04DX002 (ip), vehicle: saline) 165 % of control; (dose: 6.25 mg/kg/injection, schedule: Q04DX002 (ip), vehicle: water) 172 % of control; (dose: 9.72 mg/kg/injection, schedule: Q04DX002 (ip), vehicle: water) 196 % of control; (dose: 12.5 mg/kg/injection, schedule: Q04DX002 (ip), vehicle: saline) 190 % of control. Further, the T/C reads like this: (dose: 12.5 mg/kg/injection, schedule: Q04DX002 (ip), vehicle: water) 177 % of control; (dose: 16.2 mg/kg/injection, schedule: Q04DX002 (ip), vehicle: water) 199 % of control; (dose: 17.0 mg/kg/injection, schedule: Q01DX001 (ip), vehicle: water) 268 % of control; (dose: 25.0 mg/kg/injection, schedule: Q04DX002 (ip), vehicle: saline) 207 % of control; (dose: 25.0 mg/kg/injection, schedule: Q04DX002 (ip), vehicle: water) 250 % of control; (dose: 27.0 mg/kg/injection, schedule: Q04DX002 (ip), vehicle: water) 245 % of control. The T/C by setting is: (dose: 45.0 mg/kg/injection, schedule: Q04DX002 (ip), vehicle: water) 323 % of control; (dose: 50.0 mg/kg/injection, schedule: Q04DX002 (ip), vehicle: saline) 254 % of control; (dose: 50.0 mg/kg/injection, schedule: Q04DX002 (ip), vehicle: water) 272 % of control.
Regarding `O=C1CC(c2ccc([N+](=O)[O-])cc2)O1` (stereo not given), the T/C was 101 % of control (dose: 100.0 mg/kg/injection, schedule: Q01DX001 (ip), vehicle: saline); 104 % of control (dose: 200.0 mg/kg/injection, schedule: Q01DX001 (ip), vehicle: saline); 102 % of control (dose: 400.0 mg/kg/injection, schedule: Q01DX001 (ip), vehicle: saline).
As to `O=C1CCC(NCCc2ccccc2)C(=O)O1` (stereo not given), the T/C was 98 % of control (dose: 50.0 mg/kg/injection, schedule: Q01DX009 (ip), vehicle: Klucel (hydroxypropylcellulose) (HPC)); 92 % of control (dose: 100.0 mg/kg/injection, schedule: Q01DX009 (ip), vehicle: Klucel (hydroxypropylcellulose) (HPC)); 103 % of control (dose: 200.0 mg/kg/injection, schedule: Q01DX009 (ip), vehicle: Klucel (hydroxypropylcellulose) (HPC)).
On to `O=C1OC2CS(=O)CC2O1` (stereo not given), for which the T/C under setting [1] was 104 % of control; the T/C (dose: 50.0 mg/kg/injection, schedule: Q01DX009 (ip), vehicle: saline) was 102 % of control; the T/C under setting [2] was 101 % of control; the T/C (dose: 100.0 mg/kg/injection, schedule: Q01DX009 (ip), vehicle: saline) was 101 % of control; the T/C under setting [3] is 95 % of control; the T/C (dose: 200.0 mg/kg/injection, schedule: Q01DX009 (ip), vehicle: saline) is 99 % of control.
Consider `COc1cc(OC)cc(C2OC3=C(Nc4ccccc4N3)C2=O)c1` (stereo not given), for which the T/C was 93 % of control (dose: 60.0 mg/kg/injection, schedule: Q01DX005 (ip), vehicle: Klucel (hydroxypropylcellulose) (HPC)) and 89 % of control (dose: 120.0 mg/kg/injection, schedule: Q01DX005 (ip), vehicle: Klucel (hydroxypropylcellulose) (HPC)).
As for `COc1cc(C2c3cc4c(cc3OC(C)(O)C2C)OCO4)cc(OC)c1OC` (stereo not given), the T/C by setting is: (dose: 12.5 mg/kg/injection, schedule: Q01DX005 (ip), vehicle: saline) 104 % of control and 105 % of control; (dose: 25.0 mg/kg/injection, schedule: Q01DX005 (ip), vehicle: saline with Tween-80) 107 % of control; under setting [4], 105 % of control; under setting [5], 103 % of control; under setting [6], 102 % of control and 105 % of control; under setting [7], 107 % of control and 113 % of control. In addition, the T/C under setting [8] is 111 % of control.
In the case of `COC/C(=N/Nc1ccc([N+](=O)[O-])cc1[N+](=O)[O-])c1ccccc1`, the T/C is 109 % of control (dose: 100.0 mg/kg/injection, schedule: Q04DX003 (ip), vehicle: saline with Tween-80); 109 % of control (dose: 200.0 mg/kg/injection, schedule: Q04DX003 (ip), vehicle: saline with Tween-80); 90 % of control (dose: 400.0 mg/kg/injection, schedule: Q04DX003 (ip), vehicle: saline with Tween-80).
On to `C[P+](CCOC(=O)NC(Cc1ccccc1)C(=O)O)(c1ccccc1)c1ccccc1` (stereo not given), for which the T/C reads like this: under setting [1], 94 % of control; under setting [2], 103 % of control.
As for `COC(=O)c1nc2nnc(NC(=O)Nc3ccc(Cl)cc3)n2c(-c2ccccc2)c1C`, the T/C runs as follows: under setting [9], 96 % of control; under setting [10], 95 % of control.
On to `C=C(C)C(=O)O[C@H]1[C@H]2[C@H](OC(=O)[C@H]2C)[C@H](O)[C@@H](C)[C@@H]2C=CC(=O)[C@]21C`, for which the T/C reads like this: under setting [11], 118 % of control; under setting [12], 113 % of control; under setting [13], 124 % of control.
Regarding `N#Cc1c(-c2ccccc2)cn2c1[nH]c(=O)c1c3c(sc12)CCCC3`, the T/C was 88 % of control and 89 % of control under setting [9]; 87 % of control under setting [10]; 86 % of control and 87 % of control under setting [14].
Turning to `CCOC(=O)N1c2ccccc2OC1C#N` (stereo not given), the T/C is 99 % of control under setting [5]; 107 % of control (dose: 100.0 mg/kg/injection, schedule: Q01DX005 (ip), vehicle: saline with Tween-80); 113 % of control (dose: 200.0 mg/kg/injection, schedule: Q01DX005 (ip), vehicle: saline with Tween-80).
In the case of `COc1cc2cccc(N)c2cc1OC`, the T/C runs as follows: (dose: 6.25 mg/kg/injection, schedule: Q01DX009 (ip), vehicle: water) 106 % of control; (dose: 12.5 mg/kg/injection, schedule: Q01DX009 (ip), vehicle: water) 114 % of control; under setting [15], 110 % of control; under setting [16], 110 % of control.
With `C1COCCSCCOCCOCCSCCO1`, the T/C is, setting by setting: (dose: 100.0 mg/kg/injection, schedule: Q04DX003 (ip), vehicle: Klucel (hydroxypropylcellulose) (HPC)) 95 % of control; (dose: 200.0 mg/kg/injection, schedule: Q04DX003 (ip), vehicle: Klucel (hydroxypropylcellulose) (HPC)) 100 % of control; (dose: 400.0 mg/kg/injection, schedule: Q04DX003 (ip), vehicle: Klucel (hydroxypropylcellulose) (HPC)) 101 % of control.
With `CCN(CC)CCOC(=O)CC1CCCCC1`, the T/C was 102 % of control under setting [1], 100 % of control under setting [2] and 99 % of control under setting [3].
Consider `[SeH]c1ccccc1`, for which the T/C was 106 % of control under setting [11], 113 % of control under setting [12] and 116 % of control under setting [13].
In the case of `CN1CCN(CC2C3CCC(C3)C2O)CC1` (stereo not given), the T/C under setting [4] is 100 % of control, the T/C under setting [6] was 97 % of control, the T/C under setting [7] was 96 % of control and the T/C under setting [8] is 99 % of control.
For the compound `O=c1[nH]c2cc([N+](=O)[O-])ccc2nc1/C=C(\O)c1cccc([N+](=O)[O-])c1`, the T/C (dose: 30.0 mg/kg/injection, schedule: Q01DX005 (ip), vehicle: Klucel + Tween-80) is 96 % of control; the T/C (dose: 60.0 mg/kg/injection, schedule: Q01DX005 (ip), vehicle: Klucel + Tween-80) was 88 % of control and 90 % of control; the T/C (dose: 120.0 mg/kg/injection, schedule: Q01DX005 (ip), vehicle: Klucel + Tween-80) was 87 % of control; the T/C (dose: 240.0 mg/kg/injection, schedule: Q01DX005 (ip), vehicle: Klucel + Tween-80) is 89 % of control.
Turning to `O=C(O)C(Cc1ccc(O)cc1)NSc1ccccc1[N+](=O)[O-]` (stereo not given), the T/C by setting is: under setting [15], 111 % of control; under setting [16], 108 % of control; (dose: 100.0 mg/kg/injection, schedule: Q01DX009 (ip), vehicle: water) 104 % of control; (dose: 200.0 mg/kg/injection, schedule: Q01DX009 (ip), vehicle: water) 110 % of control.
Turning to `CCOC(=O)C(C#N)C(=N)C1C(=O)OC2CCCCC21` (stereo not given), the T/C by setting is: under setting [9], 98 % of control; under setting [10], 100 % of control; under setting [14], 92 % of control.
